Source: ChEMBL document CHEMBL4393660, “New pyrazole derivatives: Synthesis, anti-inflammatory activity, cycloxygenase inhibition assay and evaluation of mPGES” (Eur J Med Chem, 2019)
Active and inactive are the calls of the source. The calls are words filed in the database; no cut-off is given here.

How the values were obtained:
Homo sapiens = organism: Homo sapiens; test: Selectivity index, ratio of IC50 for human recombinant COX1 to IC50 for human recombinant COX-2 assessed as reduction in PGF2alpha formation using arachidonic acid as substrate preincubated with enzyme for 10 mins followed by substrate addition for 30 secs and measured after 1 hr by microplate reader based enzyme immunoassay
[1] = molecular target: T1, Prostaglandin G/H synthase 2 (Homo sapiens, UniProt P35354); test: Inhibition of human recombinant COX-2 assessed as reduction in PGF2alpha formation using arachidonic acid as substrate preincubated with enzyme for 10 mins followed by substrate addition for 30 secs and measured after 1 hr by microplate reader based enzyme immunoassay
T1 sequence (P35354 whole entry): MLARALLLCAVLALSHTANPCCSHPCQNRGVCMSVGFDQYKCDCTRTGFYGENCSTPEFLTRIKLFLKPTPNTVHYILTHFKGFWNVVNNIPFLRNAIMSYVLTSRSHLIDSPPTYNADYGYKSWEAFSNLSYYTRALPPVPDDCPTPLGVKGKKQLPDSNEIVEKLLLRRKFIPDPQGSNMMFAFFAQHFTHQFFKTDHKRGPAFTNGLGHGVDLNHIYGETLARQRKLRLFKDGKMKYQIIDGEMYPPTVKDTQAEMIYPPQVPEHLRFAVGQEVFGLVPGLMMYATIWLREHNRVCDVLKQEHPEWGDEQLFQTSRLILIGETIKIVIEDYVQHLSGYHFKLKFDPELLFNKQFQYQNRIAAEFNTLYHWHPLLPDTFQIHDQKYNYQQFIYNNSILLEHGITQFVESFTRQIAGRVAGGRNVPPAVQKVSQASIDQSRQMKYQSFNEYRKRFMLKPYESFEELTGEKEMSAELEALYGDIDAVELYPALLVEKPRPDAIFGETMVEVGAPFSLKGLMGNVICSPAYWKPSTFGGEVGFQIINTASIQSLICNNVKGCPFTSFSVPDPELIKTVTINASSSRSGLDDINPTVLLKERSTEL

[2] = molecular target: Prostaglandin G/H synthase 1 (Homo sapiens, UniProt P23219); test: Inhibition of human recombinant COX1 assessed as reduction in PGF2alpha formation using arachidonic acid as substrate preincubated with enzyme for 10 mins followed by substrate addition for 30 secs and measured after 1 hr by microplate reader based enzyme immunoassay
Sequence of Prostaglandin G/H synthase 1 (P23219 whole entry): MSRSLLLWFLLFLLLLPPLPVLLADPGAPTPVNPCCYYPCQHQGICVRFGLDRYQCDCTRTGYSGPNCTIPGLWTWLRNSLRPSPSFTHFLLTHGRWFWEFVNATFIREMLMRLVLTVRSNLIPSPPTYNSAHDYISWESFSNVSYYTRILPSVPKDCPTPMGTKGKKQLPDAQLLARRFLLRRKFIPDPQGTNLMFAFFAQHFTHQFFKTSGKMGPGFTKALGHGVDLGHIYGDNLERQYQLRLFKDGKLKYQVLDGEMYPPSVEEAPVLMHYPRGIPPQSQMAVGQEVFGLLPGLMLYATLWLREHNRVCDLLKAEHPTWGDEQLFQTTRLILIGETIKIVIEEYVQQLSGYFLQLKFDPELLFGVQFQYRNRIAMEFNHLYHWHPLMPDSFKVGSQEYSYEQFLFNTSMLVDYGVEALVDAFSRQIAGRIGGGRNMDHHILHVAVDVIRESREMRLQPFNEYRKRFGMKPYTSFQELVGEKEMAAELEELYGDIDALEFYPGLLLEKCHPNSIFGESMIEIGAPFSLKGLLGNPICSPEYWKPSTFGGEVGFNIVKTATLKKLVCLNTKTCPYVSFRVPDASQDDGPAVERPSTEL

Rattus norvegicus [3] = test: Anti-inflammatory activity against carrageenan-induced albino rat paw edema model assessed as inhibition of microsomal PGE2 synthase expression in plasma at 10 umol/kg, sc treated 1 hr prior to carrageenan challenge measured after 2 hrs by microplate reader based monoclonal sandwich ELISA assay; assay type: functional
Rattus norvegicus [4] = test: Anti-inflammatory activity against carrageenan-induced albino rat paw edema model assessed as inhibition of PGE2 production in plasma at 10 umol/kg, sc treated 1 hr prior to carrageenan challenge measured after 2 hrs by microplate reader based enzyme immunoassay relative to control; assay type: functional
Rattus norvegicus [5] = test: Anti-inflammatory activity against carrageenan-induced albino rat paw edema model assessed as inhibition of carrageenan-induced right hind paw edema at 10 umol/kg, sc treated 1 hr prior to carrageenan challenge and measured at 2 hrs after carrageenan treatment by plethysmometer relative to control; assay type: functional
Rattus norvegicus [6] = test: (§1) Anti-inflammatory activity against carrageenan-induced albino rat paw edema model assessed as inhibition of carrageenan-induced right hind paw edema at 10 umol/kg, sc treated 1 hr prior to carrageenan challenge and measured at 1 hr after carrageenan treatment by plethysmometer relative to control; assay type: functional
Rattus norvegicus [7] = test: Anti-inflammatory activity against carrageenan-induced albino rat paw edema model assessed as inhibition of carrageenan-induced right hind paw edema at 10 umol/kg, sc treated 1 hr prior to carrageenan challenge and measured at 3 hrs after carrageenan treatment by plethysmometer relative to control; assay type: functional
Rattus norvegicus [8] = test: Anti-inflammatory activity against carrageenan-induced albino rat paw edema model assessed as inhibition of carrageenan-induced right hind paw edema at 10 umol/kg, sc treated 1 hr prior to carrageenan challenge and measured at 6 hrs after carrageenan treatment by plethysmometer relative to control; assay type: functional
Rattus norvegicus [9] = test: as §1, with “immediately” for “at 1 hr”; assay type: functional
[10] = Toxicity in carrageenan-induced albino rat paw edema model assessed as Inhibition of cytosolic PGE2 synthase expression in plasma at 10 umol/kg, sc treated 1 hr prior to carrageenan challenge measured after 2 hrs by microplate reader based monoclonal sandwich ELISA assay; assay type: organism-based; conditions: in vivo
Rattus norvegicus [11] = test: Ratio of inhibition of microsomal PGE2 synthase expression to inhibition of cytosolic PGE2 synthase expression in plasma of carrageenan-induced albino rat paw edema model at 10 umol/kg, sc treated 1 hr prior to carrageenan challenge measured after 2 hrs by microplate reader based monoclonal sandwich ELISA assay

| Ratio IC50 (Homo sapiens) | IC50 [1] [nM] | IC50 [2] [nM] | Structure (SMILES) | inhibition in vivo at 10 µmol/kg (Rattus norvegicus [3]) [%] | inhibition in vivo at 10 µmol/kg (Rattus norvegicus [4]) [%] | inhibition in vivo at 10 µmol/kg (Rattus norvegicus [5]) [%] | inhibition in vivo at 10 µmol/kg (Rattus norvegicus [6]) [%] | inhibition in vivo at 10 µmol/kg (Rattus norvegicus [7]) [%] | inhibition in vivo at 10 µmol/kg (Rattus norvegicus [8]) [%] | inhibition (Rattus norvegicus [9]) | inhibition (INH) [10] [%] | inhibition (Rattus norvegicus [6]) | fold change (FC) (Rattus norvegicus [11]) | inhibition in vivo at 10 µmol/kg (Rattus norvegicus [9]) [%] |
| --- | --- | --- | --- | --- | --- | --- | --- | --- | --- | --- | --- | --- | --- | --- |
| 2.46 | 83 | 205 | N#Cc1cnn(-c2ccc(S(N)(=O)=O)cc2)c1/N=C/c1ccccc1 | – | – | – | – | – | – | – | – | – | – | – |
| 17.5 | 38.7 | 677 | N#Cc1cnn(-c2ccc(S(N)(=O)=O)cc2)c1/N=C/c1ccc(F)cc1 | 74.7 | 73.9 | 7.94 | 1.85 | 36.7 | 43 | inactive | 48.52 | – | – | – |
| 3.72 | 43.7 | 163 | COc1ccc(/C=N/c2c(C#N)cnn2-c2ccc(S(N)(=O)=O)cc2)cc1OC | – | – | – | – | – | – | – | – | – | – | – |
| 0.89 | 190 | 169 | N#Cc1cnn(-c2ccc(S(N)(=O)=O)cc2)c1/N=C/c1ccc(Cl)cc1 | – | – | – | – | – | – | – | – | – | – | – |
| 1.31 | 123 | 161 | CC(C(=O)Nc1c(C#N)cnn1-c1ccc(S(N)(=O)=O)cc1)N1CCOCC1 (configuration not stated) | – | – | – | – | – | – | – | – | – | – | – |
| 4.67 | 108 | 507 | CC(Cl)C(=O)Nc1c(C#N)cnn1-c1ccc(S(N)(=O)=O)cc1 (configuration not stated) | – | – | – | – | – | – | – | – | – | – | – |
| 2.12 | 58 | 123 | N#Cc1cnn(-c2ccc(S(N)(=O)=O)cc2)c1NC(=O)CCCl | – | – | – | – | – | – | – | – | – | – | – |
| 1.3 | 56.2 | 73.3 | N#Cc1cnn(-c2ccc(S(N)(=O)=O)cc2)c1NC(=O)c1ccccc1 | – | – | – | – | – | – | – | – | – | – | – |
| 1.78 | 64.9 | 116 | N#Cc1cnn(-c2ccc(S(N)(=O)=O)cc2)c1/N=C/c1ccc(Br)cc1 | – | – | – | – | – | – | – | – | – | – | – |
| 13.1 | 39.1 | 513 | COc1ccc(/C=N/c2c(C#N)cnn2-c2ccc(S(N)(=O)=O)cc2)cc1 | 80.3 | 64.4 | 5.29 | – | 33.6 | 42.3 | inactive | 52.43 | inactive | – | – |
| 5.24 | 19.9 | 104 | N#Cc1cnn(-c2ccc(S(N)(=O)=O)cc2)c1NC(=O)CCl | 80.7 | 67.5 | 26.5 | 16.7 | 40.1 | 46 | – | 31.55 | – | 2.5 | 13.6 |
| 22.2 | 39.4 | 876 | N#Cc1cnn(-c2ccc(S(N)(=O)=O)cc2)c1NC(=O)CCN1CCOCC1 | 74.1 | 76.2 | 27.5 | 2.04 | 39.5 | 44 | inactive | 44.43 | – | 1.5 | – |
| 14.3 | 61.2 | 879 | CC(=O)Nc1c(C#N)cnn1-c1ccc(S(=O)(=O)NC(C)=O)cc1 | 80 | 65.3 | 17.5 | 9.26 | 35 | 44.3 | – | 31.08 | – | – | 0 |
| – | – | – | Cc1ccc(-c2cc(C(F)(F)F)nn2-c2ccc(S(N)(=O)=O)cc2)cc1 [CELECOXIB] | 80 | 69.6 | 8.99 | 11.1 | 35 | 42.6 | – | 51.11 | – | – | 6.06 |
| 1.89 | 34.2 | 64.7 | N#Cc1cnn(-c2ccc(S(N)(=O)=O)cc2)c1NC(=O)CN1CCOCC1 | – | – | – | – | – | – | – | – | – | – | – |
